How the values were obtained:
LL/2 = LL/2 subcutaneous syngeneic lung cancer mouse model (Study 6), tumor growth inhibition; type: in vivo, mouse (C57BL/6)
Protocol: (§1) In this example, the in vivo anti-tumor efficacy of ARI-001, ARI-002, ARI-003, and ARI-143 and their combinations with an anti-PD-1 antibody was evaluated using a panel of twelve subcutaneous syngeneic mouse tumor models.
(§2) Eleven subcutaneous syngeneic mouse tumor models were generated by innoculating female BALB/C or C57BL/6 mice with cancer cells at their right lower or right front flank followed by randomization as detailed in Table 4 below.
(§3) A solution of a rat monoclonal anti-mouse PD-1 antibody (isotype IgG2a, κ) at a concentration of 6.61 mg/ml was obtained from BioXcell (InVivoMAb anti-mouse PD-1 (CD279), Clone RMP1-14, Cat #BE0146)) and store at 4° C. The antibody solution was diluted with PBS to obtain a 1 mg/ml dosing solution.
(§4) ARI-001, ARI-002, and ARI-003 powder was stored at −20° C. The powder of each compound was dissolved in DMSO to obtain dosing solutions at 106.7, 80, and 53.33 mg/ml for administration to mice at 160, 120, and 80 mg/kg, respectively. ARI-143 was similarly prepared.
(§5) Twelve studies using the twelve subcutaneous syngeneic mouse tumor models were performed. In each study, 80 mice were enrolled and randomly allocated to eight different study groups, with 10 mice in each study group. The mean tumor size at randomization was approximately 80-120 mm^3 (around 100 mm^3). Randomization was performed based on “Matched distribution” randomization method (StudyDirector™ software, version 3.1.399.19). […] All the drugs and vehicle controls were injected to the mice intraperitoneally.
(§6) After tumor cell inoculation, the animals were checked daily for morbidity and mortality. At the time of routine monitoring, the animals were checked for any effects of tumor growth and treatments on behavior such as mobility, food and water consumption, body weight gain/loss (body weights were measured twice or three times per week after randomization), and any other abnormalities. Mortality and observed clinical signs were recorded for individual animals. Tumor volumes were measured twice or three times weekly after randomization in two dimensions using a caliper, and the volume was expressed in mm^3 using the formula: […]
(§7) where V is tumor volume, L is tumor length (the longest tumor dimension) and W is tumor width (the longest tumor dimension perpendicular to L).
(§8) The study was terminated when the mean tumor volume (MTV) in the vehicle group reached a value of 2,000 mm^3. Tumor growth inhibition (TGI) is an indication of antitumor activity, and expressed as: […]
(§9) where T and C are the MTV (or weight) of the treated and control groups, respectively, on a given day. Statistical analysis of the difference in MTV among the groups was conducted using the data collected on the day when the MTV of the vehicle group reached the humane endpoints, so that TGI could be derived for all or most mice enrolled in the study.
(§10) Statistical analysis of differences in MTV among the groups was conducted by Independent-Samples T Test using the data collected. All data were analyzed with SPSS (Statistical Product and Service Solutions) version 18.0 (IBM, Armonk, N.Y., U.S.). P-values were rounded to three decimal places, with the exception that raw P-values less than 0.001 were stated as P<0.001. All tests were two-sided. P<0.05 was considered to be statistically significant.
FIG. 65 is a graph showing the mean tumor volume on different study days in the study groups as indicated according to Study 6 (LL/2). The study end day was Day 32.

B16F10 = B16F10 subcutaneous syngeneic melanoma mouse model (Study 10), tumor growth inhibition; type: in vivo, mouse (C57BL/6)
Protocol: as §1, §2, §3, §4, §5, §6, §7, §8, §9, §10
FIG. 69 is a graph showing the mean tumor volume on different study days in the study groups as indicated according to Study 10 (B16F10). The study end day was Day 19.

CT26 = assay: CT-26 subcutaneous syngeneic colon cancer mouse model (Study 4), tumor growth inhibition; type: in vivo, mouse (BALB/C); conditions: CT-26 model, i.p.; ARI compounds 160 mg/kg QD × 15 doses, Anti-PD-1 10 BIW × 5 doses; study end day Day 23
Protocol: as §1, §2, §3, §4, §5, §6, §7, §8, §9, §10
FIG. 63 is a graph showing the mean tumor volume on different study days in the study groups as indicated according to Study 4 (CT-26). The study end day was Day 23.

Hepa1-6 = Hepa1-6 subcutaneous syngeneic liver cancer mouse model (Study 9), tumor growth inhibition; type: in vivo, mouse (C57BL/6)
Protocol: as §1, §2, §3, §4, §5, §6, §7, §8, §9, §10
FIG. 68 is a graph showing the mean tumor volume on different study days in the study groups as indicated according to Study 9 (Hepal-6). The study end day was Day 26.

EMT-6 = EMT-6 subcutaneous syngeneic breast cancer mouse model (Study 2 and Study 12), tumor growth inhibition; type: in vivo, mouse (BALB/C); conditions: EMT-6 syngeneic breast cancer model
Protocol: as §1, §2, §3, §4, §5, §6, §7, §8, §9, §10
FIG. 61 is a graph showing the mean tumor volume on different study days in the study groups as indicated according to Study 2 (EMT-6). The study end day was Day 27.

Renca = Renca subcutaneous syngeneic kidney cancer mouse model (Study 8), tumor growth inhibition; type: in vivo, mouse (BALB/C)
Protocol: as §1, §2, §3, §4, §5, §6, §7, §8, §9, §10
FIG. 67 is a graph showing the mean tumor volume on different study days in the study groups as indicated according to Study 8 (Renca). The study end day was Day 28.

A20 = A20 subcutaneous syngeneic lymphoma mouse model (Study 5), tumor growth inhibition; type: in vivo, mouse (BALB/C); conditions: A20 model, i.p.; ARI compounds 160 mg/kg QD × 14 doses, Anti-PD-1 10 BIW × 4 doses; study end day Day 26
Protocol: as §1, §2, §3, §4, §5, §6, §7, §8, §9, §10
FIG. 64 is a graph showing the mean tumor volume on different study days in the study groups as indicated according to Study 5 (A20). The study end day was Day 26.

MC38 = MC38 subcutaneous syngeneic colon cancer mouse model (Study 1), tumor growth inhibition; type: in vivo, mouse (C57BL/6)
Protocol: as §1, §2, §3, §4, §5, §6, §7, §8, §9, §10
FIG. 60 is a graph showing the mean tumor volume on different study days in the study groups as indicated according to Study 1 (MC38). The study end day was Day 26.

Pan02 = Pan02 subcutaneous syngeneic pancreatic cancer mouse model (Study 3), tumor growth inhibition; type: in vivo, mouse (C57BL/6)
Protocol: as §1, §2, §3, §4, §5, §6, §7, §8, §9, §10
FIG. 62 is a graph showing the mean tumor volume on different study days in the study groups as indicated according to Study 3 (Pan02). The study end day was Day 32.

RM-1 = RM-1 subcutaneous syngeneic prostate cancer mouse model (Study 7), tumor growth inhibition; type: in vivo, mouse (C57BL/6); conditions: RM-1 model, study end day Day 19
Protocol: as §1, §2, §3, §4, §5, §6, §7, §8, §9, §10
FIG. 66 is a graph showing the mean tumor volume on different study days in the study groups as indicated according to Study 7 (RM-1). The study end day was Day 19.

H22 = H22 subcutaneous syngeneic liver cancer mouse model (Study 11), tumor growth inhibition; type: in vivo, mouse (BALB/C)
Protocol: as §1, §2, §3, §4, §5, §6, §7, §8, §9, §10
FIG. 70 is a graph showing the mean tumor volume on different study days in the study groups as indicated according to Study 11 (H22). The study end day was Day 18.

[1] = MC38 model, i.p., ARI compounds 160 mg/kg QD × 17 doses, Anti-PD-1 10 BIW × 5 doses, study end day Day 26
[2] = Pan02 model, i.p., ARI compounds 160 mg/kg QD × 28 doses, Anti-PD-1 10 BIW × 8 doses, study end day Day 32
[3] = Pan02 syngeneic pancreatic cancer model

For `NC(=O)c1csc(C(=O)c2c[nH]c3ccccc23)n1` [ARI-003], the Tumor size (LL/2; LL/2 model, Mean ± SEM, study end day Day 32, in mm³) was 839.79 ± 99.43, the “TGI(%)” value (LL/2; LL/2 model, study end day Day 32) was 62% and the “anti-tumor potency of anti-PD-1 antibody combined with the compound, compared to the antibody alone or the vehicle” value (LL/2; LL/2 syngeneic lung cancer model) was “statistically significant increase”. The Tumor size (B16F10; B16F10 model, Mean ± SEM, study end day Day 19, in mm³) was 2234.18 ± 248.14, the “TGI(%)” value (B16F10; B16F10 model, study end day Day 19) was 24% and the “anti-tumor potency of anti-PD-1 antibody combined with the compound, compared to the antibody alone or the vehicle” value (B16F10; B16F10 syngeneic melanoma model) was “statistically significant increase”. The “TGI(%)” value (CT26) was 64%, the “Tumor size (Mean ± SEM)” value (CT26) was 836.51 ± 110.61 mm^3 and the Tumor size (Hepa1-6; Hepa1-6 model, Mean ± SEM, study end day Day 26, in mm³) was 1251.31 ± 158.72. The “TGI(%)” value (Hepa1-6; Hepa1-6 model, study end day Day 26) was 23%, the “anti-tumor potency of the compound combined with anti-PD-1 antibody, compared to being used alone” value (Hepa1-6; Hepa1-6 syngeneic liver cancer model) was “statistically significant increase” and the “anti-tumor potency of anti-PD-1 antibody combined with the compound, compared to the antibody alone or the vehicle” value (EMT-6) was “statistically significant increase”. For the same compound, the Tumor size (Renca; Renca model, Mean ± SEM, study end day Day 28, in mm³) was 1240.04 ± 90.09, the “TGI(%)” value (Renca; Renca model, study end day Day 28) was 42% and the “anti-tumor potency of anti-PD-1 antibody combined with the compound, compared to the antibody alone” value (Renca; Renca syngeneic kidney cancer model) was “statistically significant increase”. The “TGI(%)” value (A20) was 54%, the “Tumor size (Mean ± SEM)” value (A20) was 1206.83 ± 121.06 mm^3 and the “TGI(%)” value (MC38; [1]) was 35%. For the same compound, the “Tumor size (Mean ± SEM)” value (MC38; [1]) was 1691.11 ± 123.57 mm^3, the “anti-tumor potency of anti-PD-1 antibody combined with the compound, compared to the antibody alone or the vehicle” value (MC38; MC38 syngeneic colon cancer model) was “statistically significant increase” and the “TGI(%)” value (Pan02; [2]) was 62%. The “Tumor size (Mean ± SEM)” value (Pan02; [2]) was 340.16 ± 49.76 mm^3, the “anti-tumor potency of anti-PD-1 antibody combined with the compound, compared to the antibody alone” value (Pan02; [3]) was “statistically significant increase” and the “anti-tumor potency of the compound combined with anti-PD-1 antibody, compared to being used alone” value (Pan02; [3]) was “statistically significant increase”. The Tumor size (RM-1; Mean ± SEM, in mm³) was 1703.05 ± 39.79, the “TGI(%)” value (RM-1) was 43% and the Tumor size (H22; H22 model, Mean ± SEM, study end day Day 18, in mm³) was 1547.54 ± 100.51. The “TGI(%)” value (H22; H22 model, study end day Day 18) was 31% and the “anti-tumor potency of the compound combined with anti-PD-1 antibody, compared to being used alone” value (H22; H22 syngeneic liver cancer model) was “statistically significant increase”.
